Measurements as given in patent US11279695B2, “Andrographolide compound and method for treatment or prevention of fibrotic disease using the same” (Zhengzhou University, priority 2018, dated 2022).

Experiments:
[1] = test system: human renal proximal tubule epithelial cells HK-2; assay: In vitro cytotoxicity MTT assay on HK-2 cells; assay type: cell-based; conditions: 48 h, 30.00 μM equivalent dose, FIGS. 6A-6B
Method: HK-2 cells were cultured in a DMEM/F12 medium containing 10% (V/V) fetal bovine serum (FBS), 100 μg/mL streptomycin, and 100 IU/mL penicillin, followed by incubation at 37° C. in a humidified atmosphere with 5% CO2.
HK-2 cells in the logarithmic growth phase were digested with 0.25% (W/V) trypsin and 0.02% EDTA (W/V), diluted into 7.0×10^4 cell/mL cell suspension with DMEM/F12 medium containing 10% (V/V) FBS, and transferred into a 96-well plate for 200 μL per well. After incubation in the 37° C. incubator with 5% CO2 for 24 hours, the medium comprising different concentration of test compounds were added into the wells. Under these conditions, the maximum final drug concentration in the assay was 30.00 μM. The experiment was performed in triplicate. After further incubation for 48 hours, other steps were the same as Example 1.

[2] = test system: hepatic fibrosis in KM mice induced by bile duct ligation (BDL); assay: Hepatic fibrosis in KM mice induced by bile duct ligation (BDL); assay type: in vivo; conditions: 10 days, scale 0-6
Method: SPF grade KM mice, healthy, male, with a body weight of 20±2 g, were purchased from Henan Experimental Animal Center. (License No. SOCK (Yu) 2017-0001).
After KM mice were fed ad libitum for 3 days, they were randomly divided into multiple groups including a sham-operated control group, a model group, an AD control group, and different compound-administered groups, six mice per group. The sham operation group and the model group were administered with 0.5% Sodium CMC (Na CMC) via gavage, and the other administration groups were administered 0.5% CMC-Na suspension of the corresponding drug, and the administration lasted for 10 days. Mice should be strictly fasting with nothing but water 12 hours prior to surgery. The mice were anesthesia by intraperitoneally injecting with 0.5% sodium pentobarbital. After limb immobilization in a supine position, the anesthetized mice were prepared. The abdomen of the mice was shaved and then swabbed with iodine to sterilize the skin regions. After spreading of surgery cloth, the abdomen was opened along the abdominal wall in the midline. The duodenum was found along the stomach, then pull upwards to just separate from the common bile duct. Double-ligated with 4/0 silk thread and disconnected the common bile duct with a distance of 0.5 cm away from the hepatic hilum. Following the examination for no bleeding and bile leakage, the 3/0 silk thread continuous suture method was used to close the abdomen layer by layer. The wound was swabbed with iodine, and the mice rest in a 37° C. warm environment until the animals were fully awake. […] Drugs were administrated by gavage on an empty stomach in the morning every day, and were given daily for 10 days. The liver was quickly excised after blood collection. The collected blood was allowed to stand in an incubator 37° C. for 45 min, and then the upper serum was collected by centrifugation at 3500 rpm for 15 min at 4° C. The liver of the lower left lobe of the mice was fixed in 10 times volume of 4% paraformaldehyde fixative, and the fixative was changed after 24 h. Pathological sections were obtained after fixation. Each section was stained with hematoxylin-eosin stain (HE) and Sirius red to observe fibrosis levels and pathological change in the liver. […] Collagen deposition was measured with Sirius red staining, and positive expression was semi-quantitatively analyzed by Image-Pro Plus. […]

[3] = test system: silica-induced pulmonary fibrosis in KM mice; assay: Silica-induced pulmonary fibrosis in KM mice; assay type: in vivo; conditions: AD at equivalent dose (40 or 120 mg/kg) ig 21 days
Method: SPF grade KM mice, healthy, male, with a body weight of 20±2 g, were purchased from Henan Experimental Animal Center. (License No. SOCK (Yu) 2017-0001). Silica was heated at 250° C. for 1 hour to remove endotoxin. After autoclaving the heated silica was suspended in physiological saline to yield a final concentration of 75 mg/mL suspension, and stored at 4° C. for use. The suspension was shaken and sonicated for 30 minutes prior to injection.
After mice were fed ad libitum for 3 days, they were randomly divided into six groups including a sham-operated control group, a model group, different groups of the compounds of the disclosure, eight mice per group. The mice were anesthetized with intraperitoneal injection of 0.5% sodium pentobarbital (50 mg/kg). After the immobilization in a supine position, the anesthetized mice were prepared. The neck of the mice was shaved and then swabbed with iodine to sterilize the skin regions. An incision with a length of about 1 cm was made along the neck for separating bronchus. A silica suspension proportional (150 mg/kg) to the body weight, and 100 μL of air was immediately injected into the trachea through the cartilage space of mice. After the muscle was reset, the mice were quickly rotated for 2 minutes to evenly distribute the silica. […] Mice lung was collected, weighed and the pulmonary lesion was measured. […]

[4] = 15 mg/kg ig, model group mean score 4.25

Structure (SMILES) | inhibitory effect on proliferation of HK-2 cells compared with AD [1] | also measured
C=C1CC[C@@H]2[C@](C)(CO)[C@H](O)CC[C@@]2(C)[C@@H]1C/C=C1/C(=O)OC[C@H]1O [AD, andrographolide] | lower inhibitory activity against the cell proliferation | fibrosis pathological score for liver tissue section (mean) ([2]; 15 mg/kg ig, model group mean score 4.8): 2.83; fibrosis pathological score for liver tissue section (mean) ([2]; 40 mg/kg ig, model group mean score 4.8): 2.10; pulmonary fibrosis score [3]: 3.8-4.9
CC1=CCC2C(C)(CO)C(O)CCC2(C)C1C=CC1=CC(=Cc2ccc(F)cc2)OC1=O (centres unmarked) [ADC-5] | higher inhibitory effect on proliferation of HK-2 cells than the parent compound AD | –
CC1=CCC2C(C)(CO)C(O)CCC2(C)C1C=CC1=CC(=Cc2ccc(F)c(F)c2)OC1=O (centres unmarked) [ADC-6] | higher inhibitory effect on proliferation of HK-2 cells than the parent compound AD | –
COc1ccc(C=C2C=C(C=CC3C(C)=CCC4C(C)(CO)C(O)CCC34C)C(=O)O2)cc1 (centres unmarked) [ADC-11] | higher inhibitory effect on proliferation of HK-2 cells than the parent compound AD | –
CC1=CCC2C(C)(CO)C(O)CCC2(C)C1C=CC1=CC(=Cc2ccccc2O)OC1=O (centres unmarked) [ADC-12] | higher inhibitory effect on proliferation of HK-2 cells than the parent compound AD | –
CC12CCC3C(CCC(O)C3(C)CO)C1CC(C1=CC(=Cc3ccc(Br)cc3)OC1=O)O2 (centres unmarked) [ADY-2] | higher inhibitory effect on proliferation of HK-2 cells than the parent compound AD | –
CC12CCC3C(CCC(O)C3(C)CO)C1CC(C1=CC(=Cc3ccccc3)OC1=O)O2 (centres unmarked) [ADY-5] | higher inhibitory effect on proliferation of HK-2 cells than the parent compound AD | –
CC12CCC3C(CCC(O)C3(C)CO)C1CC(C1=CC(=Cc3ccc(F)c(F)c3)OC1=O)O2 (centres unmarked) [ADY-6] | higher inhibitory effect on proliferation of HK-2 cells than the parent compound AD | –
COc1cccc(C=C2C=C(C3CC4C5CCC(O)C(C)(CO)C5CCC4(C)O3)C(=O)O2)c1 (centres unmarked) [ADY-7] | – | fibrosis pathological score for liver tissue section (mean) [2, 4]: 0.4
CC12CCC3C(CCC(O)C3(C)CO)C1CC(C1=CC(=Cc3ccc(O)cc3)OC1=O)O2 (centres unmarked) [ADY-8] | higher inhibitory effect on proliferation of HK-2 cells than the parent compound AD | –
COc1ccc(C=C2C=C(C3CC4C5CCC(O)C(C)(CO)C5CCC4(C)O3)C(=O)O2)cc1 (centres unmarked) [ADY-12] | – | fibrosis pathological score for liver tissue section (mean) [2, 4]: 1.4
